Reference: article PMC12349723, “Computationally accelerated identification of P-glycoprotein inhibitors” (PLOS One, 2025)
“And” between values parts separate entries of the source, which are not always exact repeats. Identical values can stand only once.

What was measured:
Assay type in all cases: cell-based, human
[1] = test system: A2780 cells; assay: MTT viability assay, parental A2780 cells, with or without PTX; conditions: A2780 cells; for Mean % Survival: mean of 8 or 12 samples; for % Survival (individual sample): single samples
Protocol: (§1) The chemotherapeutic sensitive DU145 human prostate cancer cells and the multidrug resistant sub-line, DU145-TXR, were generous gifts from Dr. Evan Keller (University of Michigan, Ann Arbor, MI). The MDR, P-gp overexpressing DU145-TXR cells were maintained under positive selection pressure by supplementing complete medium with 10 nM paclitaxel (Acros Organics, NJ). In addition to the aforementioned cell lines, the chemotherapeutic sensitive A2780 ovarian cancer cells (93112519, Sigma) and the multidrug resistant A2780-ADR (93112520, Sigma) were maintained in complete RPMI media consisting of RPMI-1640 with L-glutamine, 10% fetal bovine serum (FBS; Corning), 100 U/mL penicillin and 100 μg/mL streptomycin in a humidified incubator at 37 °C and 5% CO2. The MDR, P-gp overexpressing A2780-ADR cell line was maintained under positive selection pressure by supplementing complete medium with 100 nM doxorubicin (Fisher Scientific, NJ). The non-cancerous HFL1 (human lung fibroblast) cell line cell line was a generous gift from Dr. Robert Harrod (Southern Methodist University, Dallas, TX) and was maintained in complete F12K media consisting of F12K with 10% fetal bovine serum, 100 U/mL penicillin, and 100 µg/mL streptomycin (Gibco). Flasks and 96 well plates that were used with the non-cancerous line HFL1 were pre-treated with 0.1 mg/ml Collagen Type 1 (Gibco) and rinsed with PBS (Fisher).
(§2) Culture of the DU145, DU145-TXR, and HFL1 cell lines was performed as described in [8]. Culture of the A2780 and A2780-ADR cell lines was performed as described in [9]. MTT assays were performed as described in [8] with minor modifications. LC-MS/MS accumulation assays were performed as described in {Nanayakkara, 2018 #173} [9] with some modifications. […] The inhibitor concentration was lowered to 15 µM here, as the goal of the study was to identify compounds that were effective in reversing MDR at low concentrations, and to determine if the expanded virtual-assisted methods improved on our first-draft attempt. Compounds 56–98 were pre-screened using Resazurin cell viability assays: cells were incubated with 15 µM compound with or without 500 nM PTX for 48 hours, after which cell survival was assessed similar to [39]. Data represent the mean of two separate experiments, with n = 3 samples per experiment (n = 6 total) (S4 Table). The top performing compounds from this initial screen were re-tested with MTT viability assays against DU145-TXR cells, as described below.
(§3) MTT assays measure the reduction of yellow, water soluble 3-(4,5-dimethylthiazol-2-yl)-2,5-diphenyltetrazolium bromide (MTT) to blue, insoluble formazan crystals by cellular reductase processes in living cells. Cells were trypsinized from monolayers and seeded in complete medium in 96 well plates. Cancerous cell lines (DU145, DU145-TXR, A2780, A2780-ADR) were seeded at 3,000 cells per well in complete RPMI medium. The non-cancerous HFL1 line was seeded at 4,000 cells per well in complete F12K medium, in collagen-treated plates (Collagen Type 1, Gibco). Cells were incubated with experimental compounds for 48 hours at 37 °C and 5% CO2 in a humidified incubator. At 48 hours, MTT was added (20 µL/well of 5 mg/mL MTT in PBS) to each well. After incubation for 4 hours, the media was removed, and the formazan crystals were dissolved in 100 µL DMSO per well. Plates containing the semi-adherent A2780 or A2780-ADR lines were spun at 1400 rpm for 3 minutes prior to aspiration of media, and the addition of DMSO. Plates were shaken for 10 minutes at 500 rpm on an Orbital shaker (LabDoctor from MidSci, St Louis, MO). The absorbance was measured at 570 nm using a Bio-Tek Cytation 5 (Bio-Tek, Winooski, VT). The measured absorbance value was correlated with the number of metabolically active cells in that well, corrected for absorbance of media. […]

[2] = test system: DU145-TXR cells; assay: MTT viability assay, reversal of MDR (re-sensitization to paclitaxel) in P-gp overexpressing DU145-TXR cells; conditions: DU145-TXR; for % Survival, mean: mean of 8 samples
Protocol: as §1, §2, §3

[3] = test system: A2780-ADR cells; assay: MTT viability assay, reversal of MDR in P-gp overexpressing A2780-ADR cells; conditions: A2780-ADR cells; for Mean % Survival: mean of 12 samples; for % Survival (individual sample): single samples (trials 1-3, samples 1-4)
Protocol: as §1, §2, §3

[4] = test system: DU145 cells; assay: MTT viability assay, non-P-gp overexpressing DU145 parental line, with or without PTX; conditions: DU145 cells, 48 h
Protocol: as §1, with “In addition to the aforementioned cell lines, the chemotherapeutic sensitive A2780 ovarian cancer cells (93112519, Sigma) and the multidrug resistant A2780-ADR (93112520, Sigma) were maintained in complete RPMI media consisting of RPMI-1640 with L-glutamine, 10% fetal bovine serum (FBS; Corning), 100 U/mL penicillin and 100 μg/mL streptomycin in a humidified incubator at 37 °C and 5% CO2.” left out
Culture of the DU145, DU145-TXR, and HFL1 cell lines was performed as described in [8]. Culture of the A2780 and A2780-ADR cell lines was performed as described in [9]. MTT assays were performed as described in [8] with minor modifications. […] Data represent the mean of two separate experiments, with n = 3 samples per experiment (n = 6 total) (S4 Table).
MTT assays measure the reduction of yellow, water soluble 3-(4,5-dimethylthiazol-2-yl)-2,5-diphenyltetrazolium bromide (MTT) to blue, insoluble formazan crystals by cellular reductase processes in living cells. Cells were trypsinized from monolayers and seeded in complete medium in 96 well plates. Cancerous cell lines (DU145, DU145-TXR, A2780, A2780-ADR) were seeded at 3,000 cells per well in complete RPMI medium. The non-cancerous HFL1 line was seeded at 4,000 cells per well in complete F12K medium, in collagen-treated plates (Collagen Type 1, Gibco). Cells were incubated with experimental compounds for 48 hours at 37 °C and 5% CO2 in a humidified incubator. At 48 hours, MTT was added (20 µL/well of 5 mg/mL MTT in PBS) to each well. After incubation for 4 hours, the media was removed, and the formazan crystals were dissolved in 100 µL DMSO per well. Plates containing the semi-adherent A2780 or A2780-ADR lines were spun at 1400 rpm for 3 minutes prior to aspiration of media, and the addition of DMSO. Plates were shaken for 10 minutes at 500 rpm on an Orbital shaker (LabDoctor from MidSci, St Louis, MO). The absorbance was measured at 570 nm using a Bio-Tek Cytation 5 (Bio-Tek, Winooski, VT). The measured absorbance value was correlated with the number of metabolically active cells in that well, corrected for absorbance of media. The percent of cell viability (termed ‘survival’ here) was calculated as a percentage of survival of the control condition, which refers to vehicle-treated (DMSO as vehicle) cells, or vehicle-and-chemotherapeutic-treated cells, if testing a compound’s ability to re-sensitize cells to a chemotherapeutic. Percent survival was calculated using the following equation:
% Survival=100 × absorbance of experimental cells/mean absorbance of control treated cells
For DU145-TXR, DU145, HFL1 and A2780 cells – data are the mean ± one standard deviation, 8 samples per compound, from at least two independent trials per compound. […] For A2780-ADR cells, data are the mean ± one standard deviation with 12 samples per compound, from at least two independent trials per compound.
67 compounds were chosen from computational screens for testing in vitro. A) DU145-TXR cells were exposed to 15 µM experimental compound with or without 500 nM of the P-gp substrate and chemotherapeutic paclitaxel (PTX).

[5] = single samples, 2 trials x 4 samples, listed as VPL

COc1ccc(CCN(C)CCCC(C#N)(c2ccc(OC)c(OC)c2)C(C)C)cc1OC (stereo not drawn) [VER]
Mean % Survival ([1]; 15 µM compound + 500 nM PTX): 14.9%
% Survival (individual sample) ([1]; 15 µM compound + 500 nM PTX): 17% and 18% and 12% and 50% and 11% and 10% and 9%
Mean % Survival ([1]; 15 µM compound alone): 75.9%
% Survival (individual sample) ([1]; 15 µM compound alone): 74% and 75% and 86% and 67% and 64% and 83% and 79%
% Survival, mean ([2]; 15 µM Compound Alone): 86.2%
% Survival ([2]; 15 µM Compound Alone, trial 1, sample 1): 98%
% Survival ([2]; 15 µM Compound Alone, trial 1, sample 2): 95%
% Survival ([2]; 15 µM Compound Alone, trial 1, sample 3): 96%
% Survival ([2]; 15 µM Compound Alone, trial 1, sample 4): 90%
% Survival ([2]; 15 µM Compound Alone, trial 2, sample 1): 79%
% Survival ([2]; 15 µM Compound Alone, trial 2, sample 2): 74%
% Survival ([2]; 15 µM Compound Alone, trial 2, sample 3): 72%
% Survival ([2]; 15 µM Compound Alone, trial 2, sample 4): 85%
% Survival, mean ([2]; 15 µM compound + 500 nM PTX (Paclitaxel, Taxol)): 21.9%
% Survival ([2]; 15 µM compound + 500 nM PTX (Paclitaxel, Taxol), trial 1, sample 1): 19%
% Survival ([2]; 15 µM compound + 500 nM PTX (Paclitaxel, Taxol), trial 1, sample 2): 23%
% Survival ([2]; 15 µM compound + 500 nM PTX (Paclitaxel, Taxol), trial 1, sample 3): 29%
% Survival ([2]; 15 µM compound + 500 nM PTX (Paclitaxel, Taxol), trial 1, sample 4): 18%
% Survival ([2]; 15 µM compound + 500 nM PTX (Paclitaxel, Taxol), trial 2, sample 1): 23%
% Survival ([2]; 15 µM compound + 500 nM PTX (Paclitaxel, Taxol), trial 2, sample 2): 20%
% Survival ([2]; 15 µM compound + 500 nM PTX (Paclitaxel, Taxol), trial 2, sample 3): 23%
% Survival ([2]; 15 µM compound + 500 nM PTX (Paclitaxel, Taxol), trial 2, sample 4): 21%
Mean % Survival ([3]; 15 µM compound + 500 nM PTX): 52.3%
% Survival (individual sample) ([3]; 15 µM compound + 500 nM PTX): 58% and 57% and 53% and 42% and 41% and 51% and 47%
Mean % Survival ([3]; 15 µM compound alone): 84.8%
% Survival (individual sample) ([3]; 15 µM compound alone): 80% and 82% and 85% and 92% and 94% and 95% and 89% and 81% and 77% and 66%

COc1ccc(CCN(C)CCCC(C#N)(c2ccc(OC)c(OC)c2)C(C)C)cc1OC (stereo not drawn) [Verapamil, reference compound]
% Survival, Mean, 15 µM compound + 500 nM PTX ([4]; mean of 8 samples): 8.6%
% Survival, 15 µM Compound alone (individual samples) [4, 5]: 53%
% Survival, 15 µM compound + 500 nM PTX (individual samples) [4, 5]: 7%
viability at 15 µM ([4]; Homo sapiens, DU-145, 48 h, mean of 8 samples, read-out: % Survival, Mean, 15 µM Compound alone): 45.5%
